This note sets out measurements from patent US8895579B2, “Heterotricyclic AMPA receptor antagonists for treatment of epilepsy, pain, and other neurological disorders and diseases” (Northwestern University, priority 2010, dated 2014).

Test [1] concerns the target T1, homomeric GluK2a kainate receptor (Rattus norvegicus, UniProt P42260).
T1 construct: myc; expressed in transfected cells; host or cells: HEK293-T/17 (CRL-11268)
Briefly: Whole-cell patch clamp of recombinant GluK2a receptors in HEK293-T/17 cells. In kind it is cell-based. The following applies: 30 μM; 10 mM glutamate. The procedure:
Cell Culture and Transfection. Human embryonic kidney cells expressing T-antigen, clone 17 (HEK293-T/17) (CRL-11268) were cultured at 37° C. with 5% CO2 in DMEM, including 100 μg/mL penicillin, 100 μg/mL streptomycin, and 10% heat-inactivated fetal bovine serum. Cells were split twice per week. For transfection, HEK293-T/17 cells were plated at 3×10^4 cells/cm^2 for pharmacology experiments and 5×10^3 cells/cm^2 for physiology experiments in fresh medium 24 h prior to transfection. Cells were transfected with AMPA or KA receptor plasmid cDNAs using Mirus Trans-IT transfection reagent (Minus Bio Corporation, Madison, Wis.) at a ratio of 1 μg cDNA: 3 μL Trans-1T reagent and maintained in transfection medium overnight followed by a media change the next day. Transfected cells were maintained in this medium until the experiment was conducted (48-72 h total post transfection).
Electrophysiology. For analysis of recombinant receptors, HEK293-T/17 cells were co-transfected with 0.2 μg of iGluR cDNA and 0.05 μg of eGFP. For heterologous GluA1/GluA2 receptors, the GluA1:GluA2 cDNA ratio was 1:6. Two to three days post-transfection, eGFP-expressing cells were lifted from the cover slip and voltage clamped in whole cell mode. […]
A general note: The patch-clamp technique gives a direct electrical read-out from membranes.

The target in another test is T2, GluK2a (Rattus norvegicus, UniProt P42260).
T2 construct: myc; expressed in transfected cells; host or cells: HEK293-T/17 (CRL-11268)
T2 sequence (P42260 32-908): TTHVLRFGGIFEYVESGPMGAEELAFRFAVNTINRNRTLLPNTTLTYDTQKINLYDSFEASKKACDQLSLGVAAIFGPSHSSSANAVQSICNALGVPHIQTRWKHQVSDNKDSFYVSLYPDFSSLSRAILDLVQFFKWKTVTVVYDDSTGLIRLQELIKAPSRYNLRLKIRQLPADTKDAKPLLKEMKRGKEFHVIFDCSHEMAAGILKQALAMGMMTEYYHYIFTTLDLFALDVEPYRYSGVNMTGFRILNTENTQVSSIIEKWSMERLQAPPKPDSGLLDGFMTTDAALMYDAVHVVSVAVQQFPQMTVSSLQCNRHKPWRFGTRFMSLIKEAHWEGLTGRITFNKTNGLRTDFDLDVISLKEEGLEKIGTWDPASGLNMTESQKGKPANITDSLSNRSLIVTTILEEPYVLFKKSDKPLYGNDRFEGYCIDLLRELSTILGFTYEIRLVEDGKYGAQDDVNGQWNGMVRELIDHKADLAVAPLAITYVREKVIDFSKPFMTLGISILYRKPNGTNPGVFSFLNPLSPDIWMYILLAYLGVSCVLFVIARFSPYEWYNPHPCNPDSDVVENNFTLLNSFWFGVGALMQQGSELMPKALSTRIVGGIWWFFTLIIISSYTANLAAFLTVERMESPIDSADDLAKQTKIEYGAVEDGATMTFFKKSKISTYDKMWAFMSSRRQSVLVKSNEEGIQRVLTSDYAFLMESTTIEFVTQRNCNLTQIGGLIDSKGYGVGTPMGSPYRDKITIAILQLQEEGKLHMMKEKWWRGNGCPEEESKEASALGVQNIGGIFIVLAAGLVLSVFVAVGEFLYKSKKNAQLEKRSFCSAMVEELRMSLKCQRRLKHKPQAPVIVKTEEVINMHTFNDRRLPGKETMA
The test is described as follows: [3H]-KA radioligand binding, membranes of HEK293-T/17 cells expressing GluK2a. Particulars: 10 nM [3H]-KA, 1 h at 4° C., read-out: [3H]KA bound as percent of total (specific) binding in absence of competing ligand. On the procedure: Radioligand binding. HEK293-T/17 cells were transfected with 5 μg of iGluR cDNA in 100 mm^2 culture dishes. Two days post transfection, the plates were washed twice with ice-cold Dulbecco's phosphate-buffered saline (DPBS) and then incubated with 50 mM Tris (pH 7.4) and 1 mM EDTA for three minutes on ice. Cells were collected and centrifuged for five minutes at 800 g at room temperature. The cell pellet was homogenized in 50 mM Tris (pH 7.4) containing 320 mM sucrose (homogenization buffer, HB) on ice using a glass dounce homogenizer and centrifuged at 4° C. for 10 minutes at 800 g. The supernatant, containing the membrane fragments, was saved and the remaining pellet containing nuclei and unbroken cells was resuspended in HB. This homogenization process was repeated two more times and after collection of the final resulting supernatant, the remaining pellet was discarded. The collected supernatants were centrifuged at 4° C. for 20 minutes at 20000 g and the resulting supernatant was discarded leaving a membrane-containing pellet. […] Non-specific binding was determined as the amount of radioligand bound in the presence of a saturating concentration of glutamate (1 mM). Total binding was determined as the amount of radioligand bound in the absence of any competing ligands minus the non-specific binding. […]

T1 sequence (P42260 32-908): as above

For the compound `O=C(O)C[C@@]12O[C@H]3C=CCN[C@H]3C1CN[C@H]2C(=O)O` (some centres unmarked) [IKM-159], the “GluK2a peak amplitude as percent of basal peak glutamate current” value in test [1] is 93±2%. The activity at 100 µM at GluK2a stood at 98 ± 4%.
